Experimental data reported in PMC6010098, “Synthesis, antitumour and antioxidant activities of novel α,β-unsaturated ketones and related heterocyclic analogues: EGFR inhibition and molecular modelling study” (Journal of Enzyme Inhibition and Medicinal Chemistry, 2018).
Blank lines part the entries; values can stand above or below the compound they belong to.

How the values were obtained:
HepG2 cells = assay: MTT antitumour assay, HepG2; type: cell-based; conditions: human hepato-cellular carcinoma cell line, mean ± SD, n = 3
Experimental: (§1) The evaluation of the antitumour activity was performed using tetrazolium salt MTT (3-(4,5-dimethyl-2-thiazolyl)-2,5-diphenyl-2H-tetrazolium bromide) assay as reported[62]^,[63].
(§2) The designed compounds were evaluated for their in vitro antitumour effects via the standard 3-(4,5-dimethylthiazol-2-yl)-2,5-diphenyltetrazolium bromide (MTT) method against a panel of four human tumour cell lines; namely, hepatocellular carcinoma cell line (HepG2), breast cancer cell line (MCF-7), human cervical cancer cell line (HeLa), and prostate cancer cell line (PC-3)[62]^,[63]^,[72]. The antitumour activities of the designed compounds 4–12, along with that of the reference drugs 5-FU and afatinib are shown in Table 1.

MCF-7 cells = assay: MTT antitumour assay, MCF-7; type: cell-based; conditions: MCF7, human breast adenocarcinoma cell line, mean ± SD, n = 3
Experimental: as §1, §2

HeLa cells = assay: MTT antitumour assay, HeLa; type: cell-based; conditions: human cervical epithelioid carcinoma cell line, mean ± SD, n = 3
Experimental: as §1
as §2, with “(PC-3)[62]^,[63]^,[72].” for “(PC-3)[62]^,[63]^,[72]. The antitumour activities of the designed compounds 4–12, along with that of the reference drugs 5-FU and afatinib are shown in Table 1.”

PC-3 cells = assay: MTT antitumour assay, PC-3; type: cell-based; conditions: PC-3; MTT; human prostate cancer cell line; mean ± SD, n = 3
Experimental: as §1, §2

[1] = ABTS radical cation scavenging (antioxidant) assay; conditions: 20 µl of 1 mg/ml test sample (L-ascorbic acid 20 µl, 2 mM)
Experimental: The absorbance (Acontrol) of a green-blue solution (ABTS^+ radical solution) resulted from a mixture of ABTS and manganese dioxide (MnO2) and was recorded at λmax 734 nm, according to the reported procedure[64]^,[65]. The absorbance (Atest) was measured upon the addition of 20 µl of 1 mg/ml solution of the test sample in spectroscopic grade methanol/phosphate buffer (1:1 v/v) to the ABTS solution. The decrease in absorbance is expressed as % inhibition, which can be calculated from the following equation: % inhibition = Acontrol-Atest/Acontrol×100.
L-Ascorbic acid 20 µl (2 mM) solution was used as standard antioxidant (positive control). A blank sample was run using only methanol/phosphate buffer (1:1), while the negative control was run with ABTS and the methanol/phosphate buffer.
The assay is based on measuring the ability of the tested compounds to scavenge the long-life radical cation of ABTS[22]^,[43]^,[64]^,[65].

[2] = tested on: HepG2, MCF-7, HeLa, and PC-3 cancer cell lines; assay: MTT antitumour assay, range over the four cell lines; type: cell-based, human; conditions: Homo sapiens, range over HepG2, MCF-7, HeLa, PC-3 (and over the compounds named), read-out: IC50 range against the tested cell lines
Experimental: as §1, §2

EGFR kinase = EGFR kinase (Homo sapiens, UniProt P00533); assay: ELISA-based EGFR kinase inhibition assay; conditions: for Conc. (Average), ELISA read-out: duplicate wells, standards in ng/ml, cont 134.9
EGFR kinase, sequence (P00533 25-1210): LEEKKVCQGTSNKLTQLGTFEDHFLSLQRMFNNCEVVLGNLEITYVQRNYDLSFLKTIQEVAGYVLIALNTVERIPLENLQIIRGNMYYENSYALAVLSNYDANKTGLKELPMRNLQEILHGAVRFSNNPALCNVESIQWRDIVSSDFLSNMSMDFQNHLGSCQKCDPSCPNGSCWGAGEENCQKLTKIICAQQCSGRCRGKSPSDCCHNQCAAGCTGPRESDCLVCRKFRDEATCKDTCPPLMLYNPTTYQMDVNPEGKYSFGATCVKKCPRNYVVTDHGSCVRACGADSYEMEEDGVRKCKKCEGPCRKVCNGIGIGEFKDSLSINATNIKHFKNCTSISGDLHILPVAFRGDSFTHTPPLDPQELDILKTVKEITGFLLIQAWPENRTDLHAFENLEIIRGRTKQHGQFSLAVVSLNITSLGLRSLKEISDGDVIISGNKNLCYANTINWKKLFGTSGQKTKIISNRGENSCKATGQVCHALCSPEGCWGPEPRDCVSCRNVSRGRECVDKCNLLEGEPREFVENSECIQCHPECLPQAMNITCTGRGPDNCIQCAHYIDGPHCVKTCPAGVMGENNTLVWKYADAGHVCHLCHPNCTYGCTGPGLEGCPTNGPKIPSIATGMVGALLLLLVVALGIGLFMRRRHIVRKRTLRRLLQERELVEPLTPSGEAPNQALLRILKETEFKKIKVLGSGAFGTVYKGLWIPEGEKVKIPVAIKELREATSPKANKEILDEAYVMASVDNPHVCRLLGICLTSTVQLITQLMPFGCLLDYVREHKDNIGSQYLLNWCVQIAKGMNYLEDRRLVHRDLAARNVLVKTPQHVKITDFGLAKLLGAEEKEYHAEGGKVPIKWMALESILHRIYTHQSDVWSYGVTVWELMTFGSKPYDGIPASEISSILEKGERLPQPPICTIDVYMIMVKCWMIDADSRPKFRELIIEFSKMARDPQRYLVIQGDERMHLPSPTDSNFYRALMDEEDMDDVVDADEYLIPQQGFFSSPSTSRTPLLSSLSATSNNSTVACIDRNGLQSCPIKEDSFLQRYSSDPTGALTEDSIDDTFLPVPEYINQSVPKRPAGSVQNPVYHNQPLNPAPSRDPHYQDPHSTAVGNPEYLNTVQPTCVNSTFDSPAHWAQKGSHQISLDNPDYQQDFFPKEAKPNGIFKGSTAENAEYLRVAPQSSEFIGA

IC50 (HepG2 cells): 27.3 ± 1.96 µM
IC50 (MCF-7 cells): 40.9 ± 2.79 µM
IC50 (HeLa cells): 25.7 ± 1.97 µM
IC50 (PC-3 cells): 21.8 ± 1.68 µM
IC50 [2]: 21.8 to 40.9 µM
SMILES: CC(=O)C=Cc1ccc(OC2CCCC2)cc1 [4a, 4-(4-(Cyclopentyloxy)phenyl)but-3-en-2-one]
%Inhibition of the ABTS radical cation [1]: 52.0%

IC50 (HepG2 cells): 20 ± 1.11 µM
IC50 (MCF-7 cells): 36.4 ± 2.6 µM
IC50 (HeLa cells): 18.8 ± 1.57 µM
IC50 (PC-3 cells): 17.1 ± 1.58 µM
SMILES: Cc1ccc(C(=O)C=Cc2ccc(OC3CCCC3)cc2)cc1 [4b, 3-(4-(Cyclopentyloxy)phenyl)-1-(4-methylphenyl)prop-2-en-1-one]
%Inhibition of the ABTS radical cation [1]: 52.6%

IC50 (HepG2 cells): 7.9 ± 0.17 µM
IC50 (MCF-7 cells): 5.4 ± 0.2 µM
IC50 (HeLa cells): 4.8 ± 0.21 µM
IC50 (PC-3 cells): 8.3 ± 0.35 µM
IC50 [2]: 4.8 to 8.3 µM
SMILES: O=c1[nH]cc(F)c(=O)[nH]1 [5-FU, 5-fluorouracil, reference compound]

IC50 (HepG2 cells): > 100 µM
IC50 (MCF-7 cells): > 100 µM
IC50 (HeLa cells): 77.8 ± 4.41 µM
IC50 (PC-3 cells): 94.1 ± 5.82 µM
SMILES: O=C1CCCC1=Cc1ccc(OC2CCCC2)cc1 [5a, 2-(4-(Cyclopentyloxy)benzylidene)cyclopentanone]

IC50 (HepG2 cells): 55.4 ± 3.95 µM
IC50 (MCF-7 cells): 49.4 ± 3.16 µM
IC50 (HeLa cells): 30.1 ± 2.24 µM
IC50 (PC-3 cells): 71.1 ± 4.93 µM
SMILES: O=C1CCCCC1=Cc1ccc(OC2CCCC2)cc1 [5b, 2-(4-(Cyclopentyloxy)benzylidene)cyclohexanone]
%Inhibition of the ABTS radical cation [1]: 51.4%

IC50 (HepG2 cells): 71.3 ± 4.53 µM
IC50 (MCF-7 cells): 64.7 ± 4.27 µM
IC50 (HeLa cells): 37.5 ± 2.81 µM
IC50 (PC-3 cells): 26.9 ± 1.89 µM
SMILES: O=C1CCCCCC1=Cc1ccc(OC2CCCC2)cc1 [5c, 2-(4-(Cyclopentyloxy)benzylidene)cycloheptanone]
%Inhibition of the ABTS radical cation [1]: 51.0%

IC50 (HepG2 cells): 15.9 ± 1.02 µM
IC50 (MCF-7 cells): 18.1 ± 1.58 µM
IC50 (HeLa cells): 9.4 ± 0.98 µM
IC50 (PC-3 cells): 10.5 ± 0.97 µM
IC50 [2]: 5.5 to 18.1 µM
IC50 (EGFR kinase): 4.66 µM
% Inhibition EGFR (EGFR kinase; 0.15 μM): 6.67%
% Inhibition EGFR (EGFR kinase; 0.31 μM): 18.16%
% Inhibition EGFR (EGFR kinase; 0.625 μM): 26.84%
% Inhibition EGFR (EGFR kinase; 1.25 μM): 34.55%
% Inhibition EGFR (EGFR kinase; 2.5 μM): 44.35%
% Inhibition EGFR (EGFR kinase; 5.0 μM): 50.34%
% Inhibition EGFR (EGFR kinase; 10.0 μM): 57.65%
inhibition at 0.15 µM (EGFR kinase; read-out: % Inhibition EGFR, 0.15 μM): 6.67%
inhibition at 0.31 µM (EGFR kinase; read-out: % Inhibition EGFR, 0.31 μM): 18.2%
inhibition at 0.625 µM (EGFR kinase; read-out: % Inhibition EGFR, 0.625 μM): 26.8%
inhibition at 1.25 µM (EGFR kinase; read-out: % Inhibition EGFR, 1.25 μM): 34.6%
inhibition at 2.5 µM (EGFR kinase; read-out: % Inhibition EGFR, 2.5 μM): 44.4%
inhibition at 5 µM (EGFR kinase; read-out: % Inhibition EGFR, 5.0 μM): 50.3%
inhibition at 10 µM (EGFR kinase; read-out: % Inhibition EGFR, 10.0 μM): 57.7%
Conc. (Average), ELISA read-out (EGFR kinase; sample at 0.15uM): 125.9
Conc. (Average), ELISA read-out (EGFR kinase; sample at 0.31uM): 110.4
Conc. (Average), ELISA read-out (EGFR kinase; sample at 0.62uM): 98.68
Conc. (Average), ELISA read-out (EGFR kinase; sample at 1.25uM): 88.29
Conc. (Average), ELISA read-out (EGFR kinase; sample at 2.5uM): 75.07
Conc. (Average), ELISA read-out (EGFR kinase; sample at 5uM): 66.98
Conc. (Average), ELISA read-out (EGFR kinase; sample at 10uM): 57.13
SMILES: CN1CCC(=O)C(=Cc2ccc(OC3CCCC3)cc2)C1 [6a, 3-(4-(Cyclopentyloxy)benzylidene)-1-methylpiperidin-4-one]
%Inhibition of the ABTS radical cation [1]: 54.3%
